This passage reports IC50 results from patent US11142515B2, “Pyrazolyl-ureas as kinase inhibitors” (RESPIVERT LIMITED, priority 2014, dated 2021).

The target in test [1] is T1, p38 MAPKα isoform (MAPK14) (Homo sapiens, UniProt Q16539).
T1 construct: purchased Life Technologies
The test is described as follows: p38 MAPKα enzyme inhibition (Z-LYTE FRET). The following applies: Table 2B, unit inferred; read-out: p38 MAPKα (Enzyme Profile). Format: biochemical. The method, boiled down: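 Recombinant human MAPK14 (40 ng/mL stock) was preincubated 2 h at RT with compound (stock dilutions 0.0012-40 μg/mL). The Z-LYTE FRET read-out used a MAPKAP-K2-derived peptide, and protease development for 1 h cleaved only non-phosphorylated peptide. Phosphorylation was calculated from the coumarin/fluorescein emission ratio.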

The next test addresses T2, p38MAPKγ (MAPK12) (Homo sapiens, UniProt P53778).
T2 construct: purchased Life Technologies
T2 sequence (P53778 1-367): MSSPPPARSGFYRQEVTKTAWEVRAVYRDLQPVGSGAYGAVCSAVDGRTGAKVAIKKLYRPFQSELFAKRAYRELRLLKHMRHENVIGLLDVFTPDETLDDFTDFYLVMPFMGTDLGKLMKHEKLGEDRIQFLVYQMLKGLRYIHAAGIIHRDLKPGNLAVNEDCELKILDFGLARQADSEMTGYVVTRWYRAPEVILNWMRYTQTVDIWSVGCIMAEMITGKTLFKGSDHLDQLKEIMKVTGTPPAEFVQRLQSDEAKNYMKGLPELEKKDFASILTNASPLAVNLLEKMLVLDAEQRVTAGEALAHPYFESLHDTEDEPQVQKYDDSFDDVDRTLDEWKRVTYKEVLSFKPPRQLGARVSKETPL
Briefly: p38 MAPKγ enzyme inhibition (Z-LYTE FRET). Format: biochemical. The note with it: Table 2B, unit inferred; read-out: p38 MAPKγ (Enzyme Profile). The method, boiled down: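 Z-LYTE read-out: after 1 h protease development, only non-phosphorylated peptide is cleaved, and the donor/acceptor (coumarin/fluorescein) ratio reports phosphorylation. Beforehand, enzyme and compound (stock concentrations 0.0012–40 μg/mL) were preincubated 2 h at RT, then the kinase reaction ran 1 h at RT with peptide and ATP (8 μM and 400 μM stocks).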

T1 sequence (Q16539 whole entry, canonical isoform): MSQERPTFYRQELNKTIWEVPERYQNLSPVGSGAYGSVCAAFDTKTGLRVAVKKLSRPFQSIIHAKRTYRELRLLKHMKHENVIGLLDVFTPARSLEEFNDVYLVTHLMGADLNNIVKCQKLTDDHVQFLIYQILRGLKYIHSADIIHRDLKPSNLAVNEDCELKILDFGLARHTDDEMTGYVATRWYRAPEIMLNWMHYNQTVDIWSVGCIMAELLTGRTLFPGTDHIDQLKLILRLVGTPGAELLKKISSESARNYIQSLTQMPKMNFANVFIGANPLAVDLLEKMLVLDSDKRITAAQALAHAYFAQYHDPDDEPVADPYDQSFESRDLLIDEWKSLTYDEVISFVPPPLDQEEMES

Take `COCCNC(=O)c1cnc(Nc2cc(COc3ccc(NC(=O)Nc4cc(C(C)(C)C)nn4-c4cccc(C)c4)c4ccccc34)ccn2)cn1` [Example 152, 5-((4-(((4-(3-(3-(tert-butyl)-1-(m-tolyl)-1H-pyrazol-5-yl)ureido)naphthalen-1-yl)oxy)methyl)pyridin-2-yl)amino)-N-(2-methoxyethyl) pyrazine-2-carboxamide]: the IC50 in test [1] came out at 0.014 µM; at p38MAPKγ (MAPK12) it was 0.24 µM.
In the same order, the values of `COCCCc1cncc(Nc2cc(COc3ccc(NC(=O)Nc4cc(C(C)(C)C)nn4-c4ccc(C)cc4)c4ccccc34)ccn2)n1` [Example 153, 1-(3-(tert-butyl)-1-(p-tolyl)-1H-pyrazol-5-yl)-3-(4-((2-((6-(3-methoxypropyl)pyrazin-2-yl)amino)pyridin-4-yl)methoxy)naphthalen-1-yl)urea] are 0.02 µM and 0.077 µM.
In the same order, the values of `COCCc1cncc(Nc2cc(COc3ccc(NC(=O)Nc4cc(C(C)(C)C)nn4-c4ccc(C)cc4)c4ccccc34)ccn2)n1` [Example 154, 1-(3-(tert-butyl)-1-(p-tolyl)-1H-pyrazol-5-yl)-3-(4-((2-((6-(2-methoxyethyl)pyrazin-2-yl)amino)pyridin-4-yl)methoxy)naphthalen-1-yl)urea] are 0.01 µM and 0.049 µM.
`Cc1ccc(-n2nc(C(C)(C)C)cc2NC(=O)Nc2ccc(OCc3ccnc(Nc4cncc(CCCO)n4)c3)c3ccccc23)cc1` [Example 155, 1-(3-(tert-butyl)-1-(p-tolyl)-1H-pyrazol-5-yl)-3-(4-((2-((6-(3-hydroxypropyl)pyrazin-2-yl)amino)pyridin-4-yl)methoxy)naphthalen-1-yl)urea]: the IC50 in test [1] is 0.0089 µM; on p38MAPKγ (MAPK12), 0.031 µM.
In the same order, the values of `COCCNC(=O)c1cnc(Nc2cc(COc3ccc(NC(=O)Nc4cc(C(C)(C)C)nn4-c4ccc(C)c(C)c4)c4ccccc34)ccn2)cn1` [Example 156] are 0.021 µM and 0.495 µM.
In the same order, the values of `COCCOc1ccc(-n2nc(C(C)(C)C)cc2NC(=O)Nc2ccc(OCc3ccnc(Nc4cnccn4)c3)c3ccccc23)cc1C` [Example 157, 1-(3-(tert-butyl)-1-(4-(2-methoxyethoxy)-3-methyl-phenyl)-1H-pyrazol-5-yl)-3-(4-((2-(pyrazin-2-ylamino)pyridin-4-yl)methoxy)naphthalen-1-yl) urea] are 0.023 µM and greater than 14.9 µM.
For the compound `COCC#Cc1cncc(Nc2cc(COc3ccc(NC(=O)Nc4cc(C(C)(C)C)nn4-c4ccc(C)cc4)c4ccccc34)ccn2)n1` [Example 158, 1-(3-(tert-butyl)-1-(p-tolyl)-1H-pyrazol-5-yl)-3-(4-((2-((6-(3-methoxyprop-1-yn-1-yl)pyrazin-2-yl)amino)pyridin-4-yl)methoxy)naphthalen-1-yl)urea], the figures for the IC50 (in test [1]; on p38MAPKγ (MAPK12)) were 0.435 µM and greater than 15 µM, respectively.
In the same order, the values of `CCc1cnc(Nc2cc(COc3ccc(NC(=O)Nc4cc(C(C)(C)C)nn4-c4cccc(C)c4)c4ccccc34)ccn2)cn1` [Example 159, 1-(3-(tert-butyl)-1-(m-tolyl)-1H-pyrazol-5-yl)-3-(4-((2-((5-ethylpyrazin-2-yl)amino)pyridin-4-yl)methoxy)naphthalen-1-yl)urea] are 0.036 µM and 0.427 µM.
In the same order, the values of `Cc1cccc(-n2nc(C(C)(C)C)cc2NC(=O)Nc2ccc(OCc3ccnc(Nc4cncc(C5CC5)n4)c3)c3ccccc23)c1` [Example 160, 1-(3-(tert-butyl)-1-(m-tolyl)-1H-pyrazol-5-yl)-3-(4-((2-((6-cyclopropylpyrazin-2-yl)amino)pyridin-4-yl)methoxy)naphthalen-1-yl) urea] are 0.034 µM and 0.51 µM.
Consider `Cc1ccc(-n2nc(C(C)(C)C)cc2NC(=O)Nc2ccc(OCc3ccnc(Nc4cncc(C5CCOCC5)n4)c3)c3ccccc23)cc1` [Example 161, 1-(3-(tert-butyl)-1-(p-tolyl)-1H-pyrazol-5-yl)-3-(4-((2-((6-(tetrahydro-2H-pyran-4-yl)pyrazin-2-yl)amino)pyridin-4-yl)methoxy)naphthalen-1-yl)urea], for which the figures for the IC50 (in test [1]; at p38MAPKγ (MAPK12)) were 0.01 µM and 0.074 µM, respectively.
In the same order, the values of `Cc1ccc(-n2nc(C(C)(C)C)cc2NC(=O)Nc2ccc(OCc3ccnc(Nc4cnc(C(=O)N5CC[C@@H](O)C5)cn4)c3)c3ccccc23)cc1` [Example 162, (R)-1-(3-(tert-butyl)-1-(p-tolyl)-1H-pyrazol-5-yl)-3-(4-((2-((5-(3-hydroxypyrrolidine-1-carbonyl)pyrazin-2-yl)amino)pyridin-4-yl)methoxy)naphthalen-1-yl)urea] are 0.0047 µM and 0.037 µM.
For the compound `COC1CN(C(=O)c2cnc(Nc3cc(COc4ccc(NC(=O)Nc5cc(C(C)(C)C)nn5-c5ccc(C)cc5)c5ccccc45)ccn3)cn2)C1` [Example 163, 1-(3-(tert-butyl)-1-(p-tolyl)-1H-pyrazol-5-yl)-3-(4-((2-((5-(3-methoxyazetidine-1-carbonyl)pyrazin-2-yl)amino)pyridin-4-yl)methoxy)naphthalen-1-yl) urea], the IC50 in test [1] stood at 0.019 µM; on p38MAPKγ (MAPK12), 0.389 µM.
In the case of `CCc1ccc(-n2nc(C(C)(C)C)cc2NC(=O)Nc2ccc(OCc3ccnc(Nc4cnc(CO)cn4)c3)c3ccccc23)cc1` [Example 164, 1-(3-(tert-butyl)-1-(4-ethylphenyl)-1H-pyrazol-5-yl)-3-(4-((2-((5-(hydroxymethyl)pyrazin-2-yl)amino)pyridin-4-yl)methoxy)naphthalen-1-yl) urea], the IC50 in test [1] turned out to be 0.0068 µM; on p38MAPKγ (MAPK12) it was 2.34 µM.
In the same order, the values of `CCc1cccc(-n2nc(C(C)(C)C)cc2NC(=O)Nc2ccc(OCc3ccnc(Nc4cnccn4)c3)c3ccccc23)c1` [Example 165, 1-(3-(tert-butyl)-1-(3-ethyl-phenyl)-1H-pyrazol-5-yl)-3-(4-((2-(pyrazin-2-ylamino)pyridin-4-yl)methoxy)naphthalen-1-yl) urea] are 0.012 µM and 0.128 µM.
In the same order, the values of `COCc1cccc(-n2nc(C(C)(C)C)cc2NC(=O)Nc2ccc(OCc3ccnc(Nc4cnccn4)c3)c3ccccc23)c1` [Example 166, 1-(3-(tert-butyl)-1-(3-(methoxymethyl)phenyl)-1H-pyrazol-5-yl)-3-(4-((2-(pyrazin-2-ylamino)pyridin-4-yl)methoxy)naphthalen-1-yl)urea] are 0.0062 µM and 0.052 µM.
In the same order, the values of `CCc1cncc(Nc2cc(COc3ccc(NC(=O)Nc4cc(C(C)(C)C)nn4-c4ccc(C)c(F)c4)c4ccccc34)ccn2)n1` [Example 167, 1-(3-(tert-butyl)-1-(3-fluoro-4-methylphenyl)-1H-pyrazol-5-yl)-3-(4-((2-((6-ethylpyrazin-2-yl)amino)pyridin-4-yl)methoxy)naphthalen-1-yl) urea] are 0.025 µM and 0.259 µM.
On to `CCc1cncc(Nc2cc(COc3ccc(NC(=O)Nc4cc(C(C)(C)C)nn4-c4ccc(OC)c(F)c4)c4ccccc34)ccn2)n1` [Example 168, 1-(3-(tert-butyl)-1-(3-fluoro-4-methoxyphenyl)-1H-pyrazol-5-yl)-3-(4-((2-((6-ethylpyrazin-2-yl)amino)pyridin-4-yl)methoxy)naphthalen-1-yl)urea], for which the IC50 in test [1] came to 0.034 µM; on p38MAPKγ (MAPK12), 1.2 µM.
